# Assay results from patent EP0728012B1, “NOVEL GnRH ANALOGUES WITH ANTITUMOUR EFFECTS AND PHARMACEUTICAL COMPOSITIONS THEREOF” (Lovas, Sandor, priority 1994, dated 1996).
# How the values were obtained:
# [1] = test system: MCF-7; details: MCF-7; 30 µM active substance; conjugate, treated once; cell count on 7th day
# Method: (§1) The procedure of treatment was as follows. After trypsinization the cells, 400,000 cells of MCF-7, MDA-MB-231 human mammary carcinoma, PC3 human prostate carcinoma or Ishikawa human endometrium tumour each were passed into Petri dishes of 10 cm in diameter. Starting from the day following transfer, the cells were treated with the substances to be tested in solution prepared with the nutrient medium during the exponential growth phase. […]
# [2] = test system: MDA-MB-231; details: MDA-MB-231; 30 µM active substance; conjugate, treated once
# Method: as §1
# [3] = test system: MDA-MB-231 xenograft; assay: In vivo antitumour effect on MDA-MB-231 xenograft in immunosuppressed mice; design: species or system CBA/Ca mice; details: for tumour-free animals: end of the 6th week, first series
# Method: The immunosuppression of mice was carried out by using the method of Steel et al. [Br. J. Cancer, 37, 224-230 (1978)]. Immunosuppression and xeno-transplantation
# CBA-Ca female mice of about 6 weeks old were thymectomized and then, after one week, they were irradiated with 60Co (whole body irradiation; the lethal dose is 9.5 Gray). Within 24 hours 3 to 5 x 10^5 myelocytes were injected into the animals. Beneath the skin of the immunosuppressed mice 2 x 10^7 tumour cells or, in the case of later passages, […] were implanted. […] The treatment with steroid hormone was stopped by at least one week before beginning the investigation.
# Recent investigations have begun on 28 animals bearing MCF-7 xenograft and on 28 animals bearing MDA-MB-231 xenograft. On animals bearing MCF-7 tumour the treatment was commenced in the 5th week following xeno-transplantation; the tumour volume was 205 to 225 mm^3. On animals bearing MDA-MB-231 tumour, the treatment was started in the 4th week after xeno-transplantation with a tumour volume of 140 to 150 mm^3. […] The control groups were daily treated with physiological saline s.c. (Each treated group consisting of 7 animals).
# A more recent study was started on 28 animals bearing MDA-MB-231 xenograft. The treatment was begun in the 4th or 5th week following xenotransplantation. The tumour volume was 0.165 to 0.194 cm^3. […] (For treatment of the control group, see the preceding Examples). Each group consisted of 7 animals.
# [4] = Castration effect: uterus weight of xenograft-bearing animals; format: in vivo, mice; details: animals bearing MCF-7 xenografts; treatment for four weeks
# Description: The castration effect is illustrated by the following data.
# [5] = test system: humoral immune response; assay: Humoral immune response (antibody production of B-lymphocytes); format: in vivo; details: mice; dose not stated
# Description: (§2) The immunosuppressive side effect of cytostatics used in tumour therapy is commonly known. This effect can be compensated to a certain grade by various immunostimulants (endotoxin, levamisole). Polypeptides with much […] molecular weights (about 40,000 to 80,000) are also capable of protecting against immunosuppressive effect [Gaál et al: J. Biol. Resp. Modif., 5, 148-159 (1986)]. The molecular weight of the novel polyanionic P-GFLG-OH macromolecule tested by us is about 10,000, that of MI-1892 is about 2000, i.e. relatively low; therefore, their immunostimulatory activity was unexpected.
# [6] = test system: cellular immune response; assay: Cellular immune response (rosette formation against BRBC antigen); format: in vivo; details: mice; dose not stated
# Description: as §2
# [7] = MDA-MB-231 xenograft, after 9 week treatment, 100 µg daily s.c.
# [8] = Table V, treatment week 2, 1x100 µg daily s.c.
# [9] = Table V, treatment week 2, conjugates 1x50 µg daily s.c.
# [10] = Table V, treatment week 6, 1x100 µg daily s.c.
# [11] = Table V, treatment week 6, MI-1892 2x25 µg, conjugates 1x50 µg daily s.c.
# [12] = week 0, daily s.c., 1 x 100 µg series
# [13] = week 0, daily s.c., P-GFLG-1544 1 x 50 µg, P-GFLG-1892 1 x 75 µg
# [14] = week 1, daily s.c., 1 x 100 µg series
# [15] = week 1, daily s.c., P-GFLG-1544 1 x 50 µg, P-GFLG-1892 1 x 75 µg
# [16] = week 2, daily s.c., 1 x 100 µg series
# [17] = week 2, daily s.c., P-GFLG-1544 1 x 50 µg, P-GFLG-1892 1 x 75 µg
# [18] = week 3, daily s.c., 1 x 100 µg series
# [19] = week 3, daily s.c., P-GFLG-1544 1 x 50 µg, P-GFLG-1892 1 x 75 µg
# [20] = week 4, daily s.c., 1 x 100 µg series
# [21] = week 4, daily s.c., P-GFLG-1544 1 x 50 µg, P-GFLG-1892 1 x 75 µg
# [22] = week 5, daily s.c., 1 x 100 µg series
# [23] = week 5, daily s.c., P-GFLG-1544 1 x 50 µg, P-GFLG-1892 1 x 75 µg
# [24] = week 6, daily s.c., 1 x 100 µg series
# [25] = week 6, daily s.c., P-GFLG-1544 1 x 50 µg, P-GFLG-1892 1 x 75 µg
# [26] = week 7, daily s.c., 1 x 100 µg series
substance,measurement,setting,value
"Ac-D-Trp^1,3,D-Cpa^2,{Lys(n-poly-(N-vinylpyrrolidone-co-maleic acid)-Gly-Phe-Leu-Gly]}^6,D-Ala^10-GnRH [P-GFLG-1544]",% Inhibition of cell division (proliferation),[1],58%
same,% Inhibition of cell division (proliferation),[2],45%
same,animals that became tumour-free,"[3]; MDA-MB-231 xenograft, 100 µg daily s.c., 6th week of treatment",1 animals from 7
same,Volume (cm^3) of tumours,[3]; [7],1.618 ± 0.518 cm^3
same,Weight (g) of tumours,[3]; [7],0.94 ± 0.52 g
same,tumour-free animals,[3]; MDA-MB-231 xenograft,A tumour-free animal was found
same,Inhibition %,[3]; [8],29%
same,Tumour volume as control (%),[3]; [8],71%
same,Inhibition %,[3]; [9],23.5%
same,Tumour volume as control (%),[3]; [9],76.5%
same,Inhibition %,[3]; [10],53%
same,Tumour volume as control (%),[3]; [10],47%
same,Inhibition %,[3]; [11],40%
same,Tumour volume as control (%),[3]; [11],60%
same,Tumour volume (cm^3),[3]; [12],0.17 cm^3
same,Tumour volume as control (%),[3]; [12],101%
same,Tumour volume (cm^3),[3]; [13],0.15 cm^3
same,Tumour volume as control (%),[3]; [13],100%
same,Tumour volume (cm^3),[3]; [14],0.24 cm^3
same,Tumour volume as control (%),[3]; [14],105%
same,Tumour volume (cm^3),[3]; [15],0.21 cm^3
same,Tumour volume as control (%),[3]; [15],83%
same,Tumour volume (cm^3),[3]; [16],0.3 cm^3
same,Tumour volume as control (%),[3]; [16],72%
same,Tumour volume (cm^3),[3]; [17],0.21 cm^3
same,Tumour volume as control (%),[3]; [17],66%
same,Tumour volume (cm^3),[3]; [18],0.36 cm^3
same,Tumour volume as control (%),[3]; [18],65%
same,Tumour volume (cm^3),[3]; [19],0.24 cm^3
same,Tumour volume as control (%),[3]; [19],66%
same,Tumour volume (cm^3),[3]; [20],0.35 cm^3
same,Tumour volume as control (%),[3]; [20],53%
same,Tumour volume (cm^3),[3]; [21],0.28 cm^3
same,Tumour volume as control (%),[3]; [21],67%
same,Tumour volume (cm^3),[3]; [22],0.46 cm^3
same,Tumour volume as control (%),[3]; [22],49%
same,Tumour volume (cm^3),[3]; [23],0.33 cm^3
same,Tumour volume as control (%),[3]; [23],75%
same,Tumour volume (cm^3),[3]; [24],0.58 cm^3
same,Tumour volume as control (%),[3]; [24],47%
same,Tumour volume (cm^3),[3]; [25],0.36 cm^3
same,Tumour volume as control (%),[3]; [25],63%
same,Tumour volume (cm^3),[3]; [26],0.75 cm^3
same,Tumour volume as control (%),[3]; [26],59%
same,uterus weight,[4],0.1149 ± 0.0110 g
"Ac-D-Trp^1,3,D-Cpa^2, {Lys[n-poly(N-vinyl pyrrolidone-co-maleic acid)-Gly-Phe-Leu-Gly-]}^5, [a-Asp(DEA)]^6, D-Ala^10-GnRH [P-GFLG-1892]",% Inhibition of cell division (proliferation),[1],45%
same,% Inhibition of cell division (proliferation),[2],42%
same,tumour-free animals,[3]; MDA-MB-231 xenograft,A tumour-free animal was found
same,Inhibition %,[3]; [9],26.5%
same,Tumour volume as control (%),[3]; [9],73.5%
same,Inhibition %,[3]; [11],44%
same,Tumour volume as control (%),[3]; [11],56%
same,Tumour volume (cm^3),[3]; [13],0.15 cm^3
same,Tumour volume as control (%),[3]; [13],100%
same,Tumour volume (cm^3),[3]; [15],0.21 cm^3
same,Tumour volume as control (%),[3]; [15],84%
same,Tumour volume (cm^3),[3]; [17],0.25 cm^3
same,Tumour volume as control (%),[3]; [17],79%
same,Tumour volume (cm^3),[3]; [19],0.27 cm^3
same,Tumour volume as control (%),[3]; [19],74%
same,Tumour volume (cm^3),[3]; [21],0.34 cm^3
same,Tumour volume as control (%),[3]; [21],81%
same,Tumour volume (cm^3),[3]; [23],0.33 cm^3
same,Tumour volume as control (%),[3]; [23],75%
same,Tumour volume (cm^3),[3]; [25],0.33 cm^3
same,Tumour volume as control (%),[3]; [25],58%
same,increase of the humoral immune response,[5],possesses an immunostimulatory effect
same,increase of the cellular immune response,[6],two-fold
